According to patent publication US9062074B2, “(9E)-15-(2-pyrrolidin-1-yl-ethoxy)-7,12,25-trioxa-19,21,24-triaza-tetracyclo[18.3.1.1(2.5).1(14,18)]hexacosa-1(24),2,4,9,14,16,18(26),20,22-nonaene citrate salt” (CTI BioPharma Corp., priority 2009, dated 2015):
Like-named read-outs stand apart in the source and are kept apart here.

Experiments:
Format in all cases: physicochemical
[1] = Phase stability by XRPD after storage at 40° C. and 75% relative humidity for one week; conditions: solid form by low resolution XRPD after one week
Procedure: Condition 2 (Low Resolution)
X-Ray Powder Diffraction patterns were also collected on a Bruker D8 diffractometer using Cu K[…] radiation (40 kV, 40 mA), θ-2θ goniometer, and divergence of V4 and receiving slits, a Ge monochromator and a Lynxeye detector. The instrument is performance checked using a certified Corundum standard (NIST 1976). The software used for data collection was Diffrac Plus XRD Commander v2.5.0 and the data were analysed and presented using Diffrac Plus EVA v 11.0.0.2 or v 13.0.0.2. Samples were run under ambient conditions as flat plate specimens using powder as received. Approximately 15 mg of the sample was gently packed into a cavity cut into polished, zerobackground (510) silicon wafer. The sample was rotated in its own plane during analysis. The details of the data collection are:
The samples which had been prepared for the collection of low resolution XRPD traces were placed in a chamber maintained at 40° C. and 75% relative humidity. After one week the samples were reanalysed by low resolution XRPD (Condition 2), to check for phase changes. It can be seen that no phase change has occurred, and that citrate salts of the invention are stable for at least one week under these conditions.

[2] = Thermogravimetric Analysis (TGA)
Procedure: Thermogravimetric Analysis (TGA) data were collected on a Mettler TGA/SDTA 851e equipped with a 34 position autosampler. The instrument was temperature calibrated using certified indium. Typically 5-30 mg of each sample was loaded onto a pre-weighed aluminium crucible and was heated at 10° C.min^−1 from ambient temperature to 350° C. A nitrogen purge at 50 ml.min^−1 was maintained over the sample. The instrument control and data analysis software was STARe v9.10.

[3] = Differential Scanning Calorimetry (DSC); conditions: heated at 10° C.min^−1
Procedure: Differential Scanning Calorimetry (DSC) data were collected on a Mettler DSC 823e equipped with a 34 position auto-sampler. The instrument was calibrated for energy and temperature using certified indium. Typically 0.5-3 mg of each sample, in a pin-holed aluminium pan, was heated at 10° C.min^−1 from 25° C. to 350° C. A nitrogen purge at 50 ml.min^−1 was maintained over the sample. The instrument control and data analysis software was STARe v9.10.

[4] = Solubility assessment (solvent added in 10 volume aliquots); conditions: thermodynamic from solid, read-out: Solubility assessment observation
Procedure: For each solvent investigated, approximately 8 mg of compound 1 was weighed into an 8 ml screw top glass vial. The solvent was added in 10 volume aliquots and the mixture sonicated and warmed (with a hot-air gun) to encourage dissolution. If dissolution was not achieved after the addition of 100 volumes of solvent, a further 100 volumes was added.

Phase Stability 1 wk @ 40° C./75% RH [1]: Crystalline Form 1
Thermogravimetric Analysis weight change ([2]; 160 to 250° C.): −21% w/w 160 to 250 °C
Thermogravimetric Analysis weight change ([2]; ambient to 160° C.): −0.4% w/w ambient to
Differential Scanning Calorimetry complex endotherm onset (significant thermal event) [3]: onset 178 °C
solubility ([4]; IPA, organic solvent or mixture, IPA, 10 vols): < 100 mg/mL
solubility ([4]; IPA, organic solvent or mixture, IPA, 20 vols): < 50 mg/mL
solubility ([4]; IPA, organic solvent or mixture, IPA, 30 vols): < 33.3 mg/mL
solubility ([4]; IPA, organic solvent or mixture, IPA, 40 vols): < 25 mg/mL
solubility ([4]; IPA, organic solvent or mixture, IPA, 60 vols): < 16.7 mg/mL
solubility ([4]; IPA, organic solvent or mixture, IPA, 80 vols): < 12.5 mg/mL
solubility ([4]; IPA, organic solvent or mixture, IPA, 100 vols): < 10 mg/mL
solubility ([4]; IPA, organic solvent or mixture, IPA, 200 vols): < 5 mg/mL
solubility ([4]; MEK, organic solvent or mixture, MEK, 10 vols): < 100 mg/mL
solubility ([4]; MEK, organic solvent or mixture, MEK, 20 vols): < 50 mg/mL
solubility ([4]; MEK, organic solvent or mixture, MEK, 30 vols): < 33.3 mg/mL
solubility ([4]; MEK, organic solvent or mixture, MEK, 40 vols): < 25 mg/mL
solubility ([4]; MEK, organic solvent or mixture, MEK, 50 vols): < 20 mg/mL
solubility ([4]; MEK, organic solvent or mixture, MEK, 60 vols): < 16.7 mg/mL
solubility ([4]; MEK, organic solvent or mixture, MEK, 80 vols): < 12.5 mg/mL
solubility ([4]; MEK, organic solvent or mixture, MEK, 100 vols): < 10 mg/mL
solubility ([4]; MEK, organic solvent or mixture, MEK, 200 vols): < 5 mg/mL
solubility ([4]; THF, organic solvent or mixture, THF, 10 vols): < 100 mg/mL
solubility ([4]; THF, organic solvent or mixture, THF, 20 vols): < 50 mg/mL
solubility ([4]; THF, organic solvent or mixture, THF, 30 vols): < 33.3 mg/mL
solubility ([4]; THF, organic solvent or mixture, THF, 40 vols): < 25 mg/mL
solubility ([4]; THF, organic solvent or mixture, THF, 60 vols): < 16.7 mg/mL
solubility ([4]; THF, organic solvent or mixture, THF, 80 vols): < 12.5 mg/mL
solubility ([4]; THF, organic solvent or mixture, THF, 100 vols): < 10 mg/mL
solubility ([4]; THF, organic solvent or mixture, THF, 200 vols): < 5 mg/mL
solubility ([4]; acetone, organic solvent or mixture, Acetone, 10 vols): < 100 mg/mL
solubility ([4]; acetone, organic solvent or mixture, Acetone, 20 vols): < 50 mg/mL
solubility ([4]; acetone, organic solvent or mixture, Acetone, 40 vols): < 25 mg/mL
solubility ([4]; acetone, organic solvent or mixture, Acetone, 60 vols): < 16.7 mg/mL
solubility ([4]; acetone, organic solvent or mixture, Acetone, 80 vols): < 12.5 mg/mL
solubility ([4]; acetone, organic solvent or mixture, Acetone, 100 vols): < 10 mg/mL
solubility ([4]; acetone, organic solvent or mixture, Acetone, 200 vols): < 5 mg/mL
solubility ([4]; acetonitrile, organic solvent or mixture, Acetonitrile, 10 vols): < 100 mg/mL
solubility ([4]; acetonitrile, organic solvent or mixture, Acetonitrile, 20 vols): < 50 mg/mL
solubility ([4]; acetonitrile, organic solvent or mixture, Acetonitrile, 30 vols): < 33.3 mg/mL
solubility ([4]; acetonitrile, organic solvent or mixture, Acetonitrile, 40 vols): < 25 mg/mL
solubility ([4]; acetonitrile, organic solvent or mixture, Acetonitrile, 60 vols): < 16.7 mg/mL
solubility ([4]; acetonitrile, organic solvent or mixture, Acetonitrile, 80 vols): < 12.5 mg/mL
solubility ([4]; acetonitrile, organic solvent or mixture, Acetonitrile, 100 vols): < 10 mg/mL
solubility ([4]; acetonitrile, organic solvent or mixture, Acetonitrile, 200 vols): < 5 mg/mL
solubility ([4]; ethanol, organic solvent or mixture, Ethanol, 10 vols): < 100 mg/mL
solubility ([4]; ethanol, organic solvent or mixture, Ethanol, 20 vols): < 50 mg/mL
solubility ([4]; ethanol, organic solvent or mixture, Ethanol, 30 vols): < 33.3 mg/mL
solubility ([4]; ethanol, organic solvent or mixture, Ethanol, 40 vols): < 25 mg/mL
solubility ([4]; ethanol, organic solvent or mixture, Ethanol, 60 vols): < 16.7 mg/mL
solubility ([4]; ethanol, organic solvent or mixture, Ethanol, 80 vols): < 12.5 mg/mL
solubility ([4]; ethanol, organic solvent or mixture, Ethanol, 100 vols): < 10 mg/mL
solubility ([4]; ethanol, organic solvent or mixture, Ethanol, 200 vols): < 5 mg/mL
solubility ([4]; water, Water, 10 vols): > 100 mg/mL
SMILES: C1=C2COC/C=C/COCc3cc(ccc3OCCN3CCCC3)Nc3nccc(n3)C(=C1)O2 [Batch 5]
